Assay results from PubChem BioAssay AID1259411 (Chemical Carcinogenesis Research Information System (CCRIS), 2018).
Active and inactive are the calls of the source. The rule behind the calls is not given here.

Test system: rodent carcinogenicity bioassays, tumor incidence
Assay: CCRIS carcinogenicity studies
Procedure, shortened: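 NCI-built, expert-reviewed records of carcinogenicity and related test outcomes (mutagenicity, tumor promotion/inhibition) compiled from published and report sources, historical span 1985-2011, not updated.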

`OC(O)C(Cl)(Cl)Cl` was tested, and the carcinogen call (Species: MOUSE, Strain/Sex: B6C3F1/FEMALE, Route: GAVAGE, Dose: 0, 10, 25, 50 MG/KG BW ONCE AT 15 DAYS OF AGE (STUDY DURATION: 104 WK), Dose: 0, 10, 25, 50 MG/KG BW ONCE AT 15 DAYS OF AGE (STUDY DURATION: 104 WK)) was “inactive; negative”, the carcinogen call (Species: MOUSE, Strain/Sex: B6C3F1/FEMALE, Route: GAVAGE, Dose: 0, 25, 50, 100 MG/KG 5 D/WK FOR 104 WK (STUDY DURATION: 104 WK), Dose: 0, 25, 50, 100 MG/KG 5 D/WK FOR 104 WK (STUDY DURATION: 104 WK), Tumor Site: Type of Lesion: PITUITARY GLAND (PARS DISTALIS): ADENOMA) was “equivocal” and the carcinogen call (Species: MOUSE, Strain/Sex: B6C3F1/FEMALE, Route: GAVAGE, Dose: 0, 25, 50, 100 MG/KG BW ONCE AT 28 DAYS OF AGE (STUDY DURATION: 104 WK), Dose: 0, 25, 50, 100 MG/KG BW ONCE AT 28 DAYS OF AGE (STUDY DURATION: 104 WK)) was “inactive; negative”. For the same compound, the carcinogen call (Species: MOUSE, Strain/Sex: B6C3F1/FEMALE, Route: GAVAGE, Dose: 0, 100 MG/KG BW 5 D/WK FOR 3 MO (STUDY DURATION: 104 WK), Tumor Site: Type of Lesion: PITUITARY GLAND (PARS DISTALIS): ADENOMA) was “equivocal”, the carcinogen call (Species: MOUSE, Strain/Sex: B6C3F1/FEMALE, Route: GAVAGE, Dose: 0, 100 MG/KG BW 5 D/WK FOR 6 MO (STUDY DURATION: 104 WK), Tumor Site: Type of Lesion: PITUITARY GLAND (PARS DISTALIS): ADENOMA) was “equivocal” and the carcinogen call (Species: MOUSE, Strain/Sex: B6C3F1/FEMALE, Route: GAVAGE, Dose: 0, 100 MG/KG BW 5 D/WK FOR 12 MO (STUDY DURATION: 104 WK), Tumor Site: Type of Lesion: PITUITARY GLAND (PARS DISTALIS): ADENOMA) was “equivocal”. For the same compound, the carcinogen call (Species: MOUSE, Strain/Sex: B6C3F1/FEMALE, Route: INTRAPERITONEAL, Dose: 0, 1000 NMOL TOTAL DOSE, 1/3 AND 2/3 OF THE TOTAL DOSE ADMINISTERED AT 8 AND 15 DAYS OF AGE RESPECTIVELY, ANIMALS TERMIN) was “inactive; negative”, the carcinogen call (Species: MOUSE, Strain/Sex: B6C3F1/FEMALE, Route: INTRAPERITONEAL, Dose: 0, 2000 NMOL TOTAL DOSE, 3/7 AND 4/7 OF THE TOTAL DOSE ADMINISTERED AT 8 AND 15 DAYS OF AGE RESPECTIVELY, ANIMALS TERMIN) was “inactive; negative” and the carcinogen call (Species: MOUSE, Strain/Sex: B6C3F1/MALE, Route: GAVAGE, Dose: 0, 10, 25, 50 MG/KG BW ONCE AT 15 DAYS OF AGE (STUDY DURATION: 104 WK), Dose: 0, 10, 25, 50 MG/KG BW ONCE AT 15 DAYS OF AGE (STUDY DURATION: 104 WK)) was “inactive; negative”. The carcinogen call (Species: MOUSE, Strain/Sex: B6C3F1/MALE, Route: GAVAGE, Dose: 0, 25, 50, 100 MG/KG IN WATER 5X/WK FOR STUDY DURATION WITH AD LIBITUM FEEDING (STUDY DURATION: 104-105 WK), Dose: 0, 25, 50, 100 MG/KG IN WATER 5X/WK FOR STUDY DURATION WITH AD LIBITUM FEEDING (STUDY DURATION: 104-105 WK), Tumor Site: Type of Lesion: LIVER: HEPATOCELLULAR ADENOMA OR CARCINOMA) was “active; positive”, the carcinogen call (Species: MOUSE, Strain/Sex: B6C3F1/MALE, Route: GAVAGE, Dose: 0, 25, 50, 100 MG/KG IN WATER 5X/WK FOR STUDY DURATION WITH DIETARY-CONTROLLED FEEDING TO MAINTAIN IDEAL BODY WEIGHT (ST, Dose: 0, 25, 50, 100 MG/KG IN WATER 5X/WK FOR STUDY DURATION WITH DIETARY-CONTROLLED FEEDING TO MAINTAIN IDEAL BODY WEIGHT (ST, Tumor Site: Type of Lesion: LIVER: HEPATOCELLULAR ADENOMA OR CARCINOMA) was “active; positive” and the carcinogen call (Species: MOUSE, Strain/Sex: B6C3F1/MALE, Route: INTRAPERITONEAL, Dose: 0, 1000 NMOL TOTAL DOSE, 1/3 AND 2/3 OF THE TOTAL DOSE ADMINISTERED AT 8 AND 15 DAYS OF AGE RESPECTIVELY, ANIMALS TERMIN) was “inactive; negative”. For the same compound, the carcinogen call (Species: MOUSE, Strain/Sex: B6C3F1/MALE, Route: INTRAPERITONEAL, Dose: 0, 2000 NMOL TOTAL DOSE, 3/7 AND 4/7 OF THE TOTAL DOSE ADMINISTERED AT 8 AND 15 DAYS OF AGE RESPECTIVELY, ANIMALS TERMIN) was “inactive; negative”, the carcinogen call (Species: MOUSE, Strain/Sex: B6C3F1/MALE, Route: ORAL, Dose: 0, 0.05, 0.5, 1 G/L IN DRINKING WATER FOR 104 WK (STUDY DURATION: 104 WK), Dose: 0, 0.05, 0.5, 1 G/L IN DRINKING WATER FOR 104 WK (STUDY DURATION: 104 WK), Tumor Site: Type of Lesion: LIVER: HEPATOCELLULAR ADENOMA OR CARCINOMA) was “active; positive” and the carcinogen call (Species: MOUSE, Strain/Sex: B6C3F1/MALE, Route: ORAL, Dose: 0, 1 G/L DISTILLED DRINKING WATER FOR STUDY DURATION (166 MG/KG/D) (STUDY DURATION: 104 WK), Tumor Site: Type of Lesion: LIVER: HEPATOCELLULAR CARCINOMA, HEPATOCELLULAR ADENOMA) was “active; positive”. For the same compound, the carcinogen call (Species: RAT, Strain/Sex: F344/N/MALE, Route: ORAL, Dose: 0, 0.05, 0.5, 2 G/L IN DRINKING WATER FOR 104 WK (STUDY DURATION: 104 WK), Dose: 0, 0.05, 0.5, 2 G/L IN DRINKING WATER FOR 104 WK (STUDY DURATION: 104 WK)) was “inactive; negative”, the carcinogen call (Species: RAT, Strain/Sex: SPRAGUE-DAWLEY/FEMALE, Route: ORAL, Dose: 0, 15, 45, 135 MG/KG BW/D IN DRINKING WATER FOR 128 WK (STUDY DURATION: 128 WK), Dose: 0, 15, 45, 135 MG/KG BW/D IN DRINKING WATER FOR 128 WK (STUDY DURATION: 128 WK)) was “inactive; negative” and the carcinogen call (Species: RAT, Strain/Sex: SPRAGUE-DAWLEY/MALE, Route: ORAL, Dose: 0, 15, 45, 135 MG/KG BW/D IN DRINKING WATER FOR 124 WK (STUDY DURATION: 124 WK), Dose: 0, 15, 45, 135 MG/KG BW/D IN DRINKING WATER FOR 124 WK (STUDY DURATION: 124 WK)) was “inactive; negative”.

With `CN1C(=O)C(O)N=C(c2ccccc2)c2cc(Cl)ccc21` (configuration not stated) the carcinogen call (Species: MOUSE, Strain/Sex: CD-1/FEMALE, Route: ORAL, Dose: 0, 10, 80, 160 MG/KG/D IN DIET FOR 18 MO (STUDY DURATION: 18 MO), Dose: 0, 10, 80, 160 MG/KG/D IN DIET FOR 18 MO (STUDY DURATION: 18 MO)) was “inactive; negative”, the carcinogen call (Species: MOUSE, Strain/Sex: CD-1/MALE, Route: ORAL, Dose: 0, 10, 80, 160 MG/KG/D IN DIET FOR 18 MO (STUDY DURATION: 18 MO), Dose: 0, 10, 80, 160 MG/KG/D IN DIET FOR 18 MO (STUDY DURATION: 18 MO)) was “inactive; negative” and the carcinogen call (Species: RAT, Strain/Sex: STRAIN-CD/FEMALE, Route: ORAL, Dose: 0, 10, 40, 160 MG/KG/D IN DIET FOR 2 YR (STUDY DURATION: 2 YR), Dose: 0, 10, 40, 160 MG/KG/D IN DIET FOR 2 YR (STUDY DURATION: 2 YR)) was “inactive; negative”. For the same compound, the carcinogen call (Species: RAT, Strain/Sex: STRAIN-CD/MALE, Route: ORAL, Dose: 0, 10, 40, 160 MG/KG/D IN DIET FOR 2 YR (STUDY DURATION: 2 YR), Dose: 0, 10, 40, 160 MG/KG/D IN DIET FOR 2 YR (STUDY DURATION: 2 YR)) was “inactive; negative”.

For `COc1cc(C(C)(C)C)c(O)c(C(C)(C)C)c1`, the carcinogen call (Species: HAMSTER, Strain/Sex: SYRIAN/MALE, Route: ORAL, Dose: 1% IN DIET FOR 24 WK (STUDY DURATION: 24 WK)) was “inactive; negative”.

With `Cc1ccc(N)cc1` the carcinogen call (Species: MOUSE, Route: ORAL, Tumor Site: Type of Lesion: LIVER) was “active; positive”.

For `CC(CNN)c1ccccc1` (configuration not stated), the carcinogen call (Species: MOUSE, Strain/Sex: SWISS/FEMALE, Route: ORAL, Dose: 0, 156, 312 PPM IN DRINKING WATER DAILY FOR LIFE (STUDY DURATION: 120-140 WK), Dose: 0, 156, 312 PPM IN DRINKING WATER DAILY FOR LIFE (STUDY DURATION: 120-140 WK)) was “inactive; negative” and the carcinogen call (Species: MOUSE, Strain/Sex: SWISS/MALE, Route: ORAL, Dose: 0, 156, 312 PPM IN DRINKING WATER DAILY FOR LIFE (STUDY DURATION: 120-140 WK), Dose: 0, 156, 312 PPM IN DRINKING WATER DAILY FOR LIFE (STUDY DURATION: 120-140 WK)) was “inactive; negative”.

`O=[N+]([O-])O` was tested, and the carcinogen call (Species: RAT, Strain/Sex: F344/MALE,FEMALE, Route: ORAL, Dose: 2.5, 5% IN DRINKING WATER FOR 2 YR) was “inactive; negative”.
